Among the data in patent US12459899B2, “Isoquinolinone derivatives, method for preparing the same, and pharmaceutical composition for preventing or treating poly(ADP-ribose) polymerase-1-related diseases, comprising the same as active ingredient” (DIGMBIO. INC., priority 2019, dated 2025) are inhibition and IC50 values, retold here.

Sequence of PARP-1 (poly[ADP-ribose] polymerase 1) enzyme (P09874 whole entry): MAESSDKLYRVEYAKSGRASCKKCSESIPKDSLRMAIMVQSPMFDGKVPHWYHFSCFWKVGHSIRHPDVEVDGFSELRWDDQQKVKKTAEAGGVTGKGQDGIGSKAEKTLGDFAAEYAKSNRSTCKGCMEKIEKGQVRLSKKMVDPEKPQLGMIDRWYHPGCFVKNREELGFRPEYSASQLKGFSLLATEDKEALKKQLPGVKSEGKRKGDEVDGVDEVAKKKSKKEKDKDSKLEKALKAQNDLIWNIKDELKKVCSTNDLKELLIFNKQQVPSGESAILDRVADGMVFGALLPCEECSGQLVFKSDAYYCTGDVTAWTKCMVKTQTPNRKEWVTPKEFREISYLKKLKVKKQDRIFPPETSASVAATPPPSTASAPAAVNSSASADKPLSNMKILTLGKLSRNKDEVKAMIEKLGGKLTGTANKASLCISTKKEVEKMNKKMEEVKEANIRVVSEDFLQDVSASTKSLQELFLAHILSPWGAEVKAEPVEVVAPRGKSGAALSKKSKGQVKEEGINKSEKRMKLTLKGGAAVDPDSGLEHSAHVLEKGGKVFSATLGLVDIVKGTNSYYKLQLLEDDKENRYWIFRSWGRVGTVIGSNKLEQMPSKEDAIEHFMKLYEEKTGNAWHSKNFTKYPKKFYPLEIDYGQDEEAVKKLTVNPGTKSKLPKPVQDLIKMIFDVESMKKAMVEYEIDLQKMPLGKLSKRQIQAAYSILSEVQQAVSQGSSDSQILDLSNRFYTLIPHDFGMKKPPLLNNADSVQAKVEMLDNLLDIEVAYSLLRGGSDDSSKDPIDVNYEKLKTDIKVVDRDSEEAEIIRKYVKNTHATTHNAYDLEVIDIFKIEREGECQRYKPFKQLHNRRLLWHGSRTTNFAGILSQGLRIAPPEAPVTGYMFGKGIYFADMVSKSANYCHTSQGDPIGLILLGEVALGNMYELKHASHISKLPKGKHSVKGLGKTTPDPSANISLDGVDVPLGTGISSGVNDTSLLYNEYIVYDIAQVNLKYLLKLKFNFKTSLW

In the first test the target is PARP-1 (poly[ADP-ribose] polymerase 1) enzyme (Homo sapiens (Human), UniProt P09874). Briefly: PARP-1 (poly[ADP-ribose] polymerase 1) enzyme inhibitory ability, Trevigen assay kit. The following applies: 1 nM compound; read-out: PAR P-1 Inhibitory ability at 1 nM. The test is classed as biochemical. The procedure, abridged:
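After the 1 hour PARP reaction, wells were washed with PBS containing 0.1% triton X-100 and then PBS. Strep-HRP (50 μL) was bound for 1 hour, wells washed again, and 50 μL of TACS-sapphire substrate developed 15 minutes in the dark. Reactions were stopped with 50 μL of 5% phosphoric acid and absorbance read at 450 nm on a Victor3 reader.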
For the compound `Cc1ccc(F)c2c(=O)[nH]c(CCC(=O)N3CCN(c4ccc(C#N)cn4)CC3)cc12` [Example 123, 6-(4-(3-(8-fluoro-5-methyl-1-oxo-1,2-dihydroisoquinolin-3-yl)propanoyl)piperazin-1-yl)nicotinonitrile], the inhibition at 0.001 µM was less than 50%.
With `Cc1ccc(F)c2c(=O)[nH]c(CCC(=O)N3CCN(c4ccc(C#N)nc4)CC3)cc12` [Example 124, 5-(4-(3-(8-fluoro-5-methyl-1-oxo-1,2-dihydroisoquinolin-3-yl)propanoyl)piperazin-1-yl)picolinonitrile], the inhibition at 0.001 µM was less than 50%.
Still for that read-out and setting: with `Cc1ccc(F)c2c(=O)[nH]c(CCC(=O)N3CC=C(c4ccc(F)cc4)CC3)cc12` [Example 125, 8-fluoro-3-(3-(4-(4-fluorophenyl)-3,6-dihydropyridin-1(2H)-yl)-3-oxopropyl)-5-methylisoquinolin-1(2H)-one] the figure was less than 50%.
On the same count and under the same terms, under `Cc1ccc(F)c2c(=O)[nH]c(CCC(=O)N3CCN(c4ccc(C#N)c(F)c4)CC3)cc12` [Example 126, 2-fluoro-4-(4-(3-(8-fluoro-5-methyl-1-oxo-1,2-dihydroisoquinolin-3-yl)propanoyl)piperazin-1-yl)benzonitrile] stands less than 50%; under `Cc1ccc(F)c2c(=O)[nH]c(CCC(=O)N3CCN(c4ccccc4C#N)CC3)cc12` [Example 127, 2-(4-(3-(8-fluoro-5-methyl-1-oxo-1,2-dihydroisoquinolin-3-yl)propanoyl)piperazin-1-yl)benzonitrile], less than 50%; under `Cc1ccc(F)c2c(=O)[nH]c(CCC(=O)N3CCN(c4ccc(C#N)cc4F)CC3)cc12` [Example 128, 3-fluoro-4-(4-(3-(8-fluoro-5-methyl-1-oxo-1,2-dihydroisoquinolin-3-yl)propanoyl)piperazin-1-yl)benzonitrile], less than 50%.
For `Cc1ccc(F)c2c(=O)[nH]c(CCC(=O)N3CC=C(c4ccc(F)nc4)CC3)cc12` [Example 129], the inhibition at 0.001 µM was less than 50%.
As to `Cc1ccc(F)c2c(=O)[nH]c(CCC(=O)N3CC=C(c4ccc(F)cn4)CC3)cc12` [Example 130, 8-fluoro-3-(3-(5-fluoro-3′,6′-dihydro-[2,4′-bipyridine]-1′(2′H)-yl)-3-oxopropyl)-5-methylisoquinolin-1(2H)-one], the inhibition at 0.001 µM is less than 50%.
The same measure, in the same setting: under `Cc1ccc(F)c2c(=O)[nH]c(CCC(=O)N3CCN(c4ccc(Cl)cc4)CC3)cc12` [Example 131, 3-(3-(4-(4-chlorophenyl)piperazin-1-yl)-3-oxopropyl)-8-fluoro-5-methylisoquinolin-1(2H)-one] stands less than 50%.
On the same count and under the same terms, with `Cc1ccc(F)c2c(=O)[nH]c(CCC(=O)N3CCN(c4ccc(F)cc4F)CC3)cc12` [Example 132, 3-(3-(4-(2,4-difluorophenyl)piperazin-1-yl)-3-oxopropyl)-8-fluoro-5-methylisoquinolin-1(2H)-one] the figure was less than 50%; with `Cc1ccc(F)c2c(=O)[nH]c(CCC(=O)N3CCN(c4cc(C#N)ccc4F)CC3)cc12` [Example 133, 4-fluoro-3-(4-(3-(8-fluoro-5-methyl-1-oxo-1,2-dihydroisoquinolin-3-yl)propanoyl)piperazin-1-yl)benzonitrile], less than 50%.
Turning to `Cc1ccc(F)c2c(=O)[nH]c(CCC(=O)N3CCN(c4cc(F)ccc4C#N)CC3)cc12` [Example 134, 4-fluoro-2-(4-(3-(8-fluoro-5-methyl-1-oxo-1,2-dihydroisoquinolin-3-yl)propanoyl)piperazin-1-yl)benzonitrile], the inhibition at 0.001 µM is less than 50%.
Consider `Cc1ccc(F)c2c(=O)[nH]c(CCC(=O)N3CCN(c4ccc(F)c(C#N)c4)CC3)cc12` [Example 135, 2-fluoro-5-(4-(3-(8-fluoro-5-methyl-1-oxo-1,2-dihydroisoquinolin-3-yl)propanoyl)piperazin-1-yl)benzonitrile], for which the inhibition at 0.001 µM was less than 50%.
Still for that read-out and setting: under `Cc1ccc(F)c2c(=O)[nH]c(CCC(=O)N3CCN(c4ccc(F)cc4C#N)CC3)cc12` [Example 136, 5-fluoro-2-(4-(3-(8-fluoro-5-methyl-1-oxo-1,2-dihydroisoquinolin-3-yl)propanoyl)piperazin-1-yl)benzonitrile] stands less than 50%; under `Cc1ccc(F)c2c(=O)[nH]c(CCC(=O)N3CC=C(c4cc(C#N)ccc4F)CC3)cc12` [Example 137, 4-fluoro-3-(1-(3-(8-fluoro-5-methyl-1-oxo-1,2-dihydroisoquinolin-3-yl)propanoyl)-1,2,3,6-tetrahydropyridin-4-yl)benzonitrile], less than 50%.
Same read-out and setting: with `Cc1ccc(F)c2c(=O)[nH]c(CCC(=O)N3CC=C(c4ccccc4F)CC3)cc12` [Example 138, 8-fluoro-3-(3-(4-(2-fluorophenyl)-3,6-dihydropyridin-1(2H)-yl)-3-oxopropyl)-5-methylisoquinolin-1(2H)-one] the figure was less than 50%; with `Cc1ccc(F)c2c(=O)[nH]c(CCC(=O)N3CC=C(c4ccc(F)c(C#N)c4)CC3)cc12` [Example 139, 2-fluoro-5-(1-(3-(8-fluoro-5-methyl-1-oxo-1,2-dihydroisoquinolin-3-yl)propanoyl)-1,2,3,6-tetrahydropyridin-4-yl)benzonitrile], less than 50%; with `Cc1ccc(F)c2c(=O)[nH]c(CCC(=O)N3CC=C(c4ccc(C#N)cn4)CC3)cc12` [Example 140, 1′-(3-(8-fluoro-5-methyl-1-oxo-1,2-dihydroisoquinolin-3-yl)propanoyl)-1′,2′,3′,6′-tetrahydro-[2,4′-bipyridine]-5-carbonitrile], less than 50%.
Still for that read-out and setting: with `Cc1ccc(F)c2c(=O)[nH]c(CCC(=O)N3CC=C(c4ccc(C#N)c(F)c4)CC3)cc12` [Example 141, 2-fluoro-4-(1-(3-(8-fluoro-5-methyl-1-oxo-1,2-dihydroisoquinolin-3-yl)propanoyl)-1,2,3,6-tetrahydropyridin-4-yl)benzonitrile] the figure was less than 50%.
As for `Cc1ccc(F)c2c(=O)[nH]c(CCC(=O)N3CCN(c4cccc(F)c4)CC3)cc12` [Example 142, 8-fluoro-3-(3-(4-(3-fluorophenyl)piperazin-1-yl)-3-oxopropyl)-5-methylisoquinolin-1(2H)-one], the inhibition at 0.001 µM is less than 50%.
Same read-out and setting: with `Cc1ccc(F)c2c(=O)[nH]c(CCC(=O)N3CC=C(c4ccnc(F)c4)CC3)cc12` [Example 144, 8-fluoro-3-(3-(2′-fluoro-3,6-dihydro-[4,4′-bipyridine]-1(2H)-yl)-3-oxopropyl)-5-methylisoquinolin-1(2H)-one] the figure was less than 50%; with `Cc1ccc(F)c2c(=O)[nH]c(CCC(=O)N3CC=C(c4ccc(C#N)nc4)CC3)cc12` [Example 145, 1′-(3-(8-fluoro-5-methyl-1-oxo-1,2-dihydroisoquinolin-3-yl)propanoyl)-1′,2′,3′,6′-tetrahydro-[3,4′-bipyridine]-6-carbonitrile], less than 50%.
`COC(=O)c1ccc(N2CCN(C(=O)CCc3cc4c(C)ccc(F)c4c(=O)[nH]3)CC2)cc1` [Example 146, methyl 4-(4-(3-(8-fluoro-5-methyl-1-oxo-1,2-dihydroisoquinolin-3-yl)propanoyl)piperazin-1-yl)benzoate]: the inhibition at 0.001 µM was less than 50%.
Same read-out and setting: with `Cc1ccc(F)c2c(=O)[nH]c(CCC(=O)N3CCN(c4ccc(C(=O)O)cc4)CC3)cc12` [Example 147, 4-(4-(3-(8-fluoro-5-methyl-1-oxo-1,2-dihydroisoquinolin-3-yl)propanoyl)piperazin-1-yl)benzoic acid] the figure was less than 50%; with `Cc1ccc(F)c2c(=O)[nH]c(CCC(=O)N3C4CCC3CN(c3ccc(C#N)cc3)C4)cc12` [Example 148, 4-(8-(3-(8-fluoro-5-methyl-1-oxo-1,2-dihydroisoquinolin-3-yl)propanoyl)-3,8-diazabicyclo[3.2.1]octan-3-yl)benzonitrile], less than 50%.
For `Cc1cc(F)cc2c(=O)[nH]c(CCC(=O)N3CCN(c4ccc(C#N)cc4)CC3)cc12` [Example 149, 4-(4-(3-(7-fluoro-5-methyl-1-oxo-1,2-dihydroisoquinolin-3-yl)propanoyl)piperazin-1-yl)benzonitrile], the inhibition at 0.001 µM was less than 50%.
Take `Cc1cc(F)cc2c(=O)[nH]c(CCC(=O)N3CC=C(c4ccc(F)cc4)CC3)cc12` [Example 150, 7-fluoro-3-(3-(4-(4-fluorophenyl)-3,6-dihydropyridin-1(2H)-yl)-3-oxopropyl)-5-methylisoquinolin-1(2H)-one]: the inhibition at 0.001 µM is less than 50%.
Still for that read-out and setting: under `Cc1cc(F)cc2c(=O)[nH]c(CCC(=O)N3CCN(c4ccc(C#N)nc4)CC3)cc12` [Example 151, 5-(4-(3-(7-fluoro-5-methyl-1-oxo-1,2-dihydroisoquinolin-3-yl)propanoyl)piperazin-1-yl)picolinonitrile] stands less than 50%.
Consider `Cc1cc(F)cc2c(=O)[nH]c(CCC(=O)N3CCN(c4ccc(C#N)cn4)CC3)cc12` [Example 152, 6-(4-(3-(7-fluoro-5-methyl-1-oxo-1,2-dihydroisoquinolin-3-yl)propanoyl)piperazin-1-yl)nicotinonitrile], for which the inhibition at 0.001 µM was less than 50%.
Take `Cc1cc(F)cc2c(=O)[nH]c(CCC(=O)N3CCN(c4ccc(C#N)c(F)c4)CC3)cc12` [Example 153, 2-fluoro-4-(4-(3-(7-fluoro-5-methyl-1-oxo-1,2-dihydroisoquinolin-3-yl)propanoyl)piperazin-1-yl)benzonitrile]: the inhibition at 0.001 µM is less than 50%.
Consider `Cc1cc(F)cc2c(=O)[nH]c(CCC(=O)N3CCN(c4ccc(C#N)cc4F)CC3)cc12` [Example 154, 3-fluoro-4-(4-(3-(7-fluoro-5-methyl-1-oxo-1,2-dihydroisoquinolin-3-yl)propanoyl)piperazin-1-yl)benzonitrile], for which the inhibition at 0.001 µM is less than 50%.

The same test, now with this note: PARP-1 enzyme activity.
Turning to `Cc1ccc(F)c2c(=O)[nH]c(CCC(=O)N3CCN(c4ccc(C#N)cc4F)CC3)cc12` [Example 128, 3-fluoro-4-(4-(3-(8-fluoro-5-methyl-1-oxo-1,2-dihydroisoquinolin-3-yl)propanoyl)piperazin-1-yl)benzonitrile], the IC50 (as a rule, the concentration that inhibits the measured activity by half) came to 1.38 nM.
The compound `Cc1cc(F)cc2c(=O)[nH]c(CCC(=O)N3CCN(c4ccc(C#N)nc4)CC3)cc12` [Example 151, 5-(4-(3-(7-fluoro-5-methyl-1-oxo-1,2-dihydroisoquinolin-3-yl)propanoyl)piperazin-1-yl)picolinonitrile] showed an IC50 of 4.05 nM.
Still for that read-out and setting: under `Cc1cc(F)cc2c(=O)[nH]c(CCC(=O)N3CCN(c4ccc(C#N)cn4)CC3)cc12` [Example 152, 6-(4-(3-(7-fluoro-5-methyl-1-oxo-1,2-dihydroisoquinolin-3-yl)propanoyl)piperazin-1-yl)nicotinonitrile] stands 0.85 nM.
